Assays:
Type in all cases: cell-based, human
[1] = tested on: HTT; experiment: Splicing RT-qPCR assay, HTT mRNA canonical junction (CJ) and alternative junction (AJ); settings: Homo sapiens; for AC50: increase in AJ mRNA
Protocol: (§1) Compounds described herein were used to modulate RNA transcript abundance in cells. The expression of a target mRNA was measured by detecting the formation of an exon-exon junction in the canonical transcript (CJ). A compound mediated exon-inclusion event was detected by observing an increase in formation of a new junction with an alternative exon (AJ). Real-time qPCR assays were used to detect these splicing switches and interrogate the potency of various compounds towards different target genes. A high-throughput real time quantitative PCR (RT-qPCR) assay was developed to measure these two isoforms of the mRNA (CJ and AJ) for exemplary genes, such as HTT, SMN2, and MYB, together with a control housekeeping gene, GAPDH or GUSB or PPIA, used for normalization. Briefly, the A673 or K562 cell line was treated with various compounds described herein (e.g., compounds of Formula (I)). After treatment, the levels of the HTT, MYB, or SMN2 mRNA targets were determined from each sample of cell lysate by cDNA synthesis followed by qPCR.
(§2) The A673 cell line was cultured in DMEM with 10% FBS. Cells were diluted with full growth media and plated in a 96-well plate (15,000 cells in 100 ul media per well). The plate was incubated at 37° C. with 5% CO2 for 24 hours to allow cells to adhere. An 11-point 3-fold serial dilution of the compounds was made in DMSO then diluted in media in an intermediate plate. Compounds were transferred from the intermediate plate to the cell plate with the top dose at a final concentration of 10 uM in the well. Final DMSO concentration was kept at or below 0.25%. The cell plate was returned to the incubator at 37° C. with 5% CO2 for an additional 24 hours.
(§3) The K562 cell line was cultured in IMDM with 10% FBS. For K562, cells were diluted with full growth media and plated in either a 96-well plate (50,000 cells in 50 uL media per well) or a 384-well plate (8,000-40,000 cells in 45 uL media per well). An 11-point 3-fold serial dilution of the compounds were made in DMSO then diluted in media in an intermediate plate. Compound was transferred from the intermediate plate to the cell plate with the top dose at a final concentration of 10 uM in the well. Final DMSO concentration was kept at or below 0.25%. Final volume was 100 uL for 96-well plate and 50 uL for 384-well plate. The cell plate was then placed in an incubator at 37° C. with 5% CO2 for 24 hours.
(§4) The cells were then gently washed with 50 uL-100 uL cold PBS before proceeding to addition of lysis buffer. 30 uL-50 μL of room temperature lysis buffer with DNAse I (and optionally RNAsin) was added to each well. Cells were shaken/mixed thoroughly at room temperature for 5-10 minutes for lysis to take place and then 3 uL-5 μL of room temperature stop solution was added and wells were shaken/mixed again. After 2-5 minutes, the cell lysate plate was transferred to ice for RT-qPCR reaction setup. The lysates could also be frozen at −80° C. for later use.
(§5) In some cases, a direct lysis buffer was used. An appropriate volume of 3× lysis buffer (10 mM Tris, 150 mM NaCl, 1.5%-2.5% Igepal and 0.1-1 U/uL RNAsin, pH 7.4) was directly added to either K562 or A673 cells in media and mixed by pipetting 3 times. The plates were then incubated at room temperature with shaking/rocking for 20-50 minutes to allow for lysis to take place. After this time, the cell lysate plate was transferred to ice to set up for the RT-qPCR reactions. The lysates could also be frozen at −80° C. for later use.
(§6) To set up 10 uL RT-qPCR reactions, cell lysates were transferred to 384-well qPCR plates containing the master mix according to the table below. The plates were sealed, gently vortexed, and spun down before the run. The volumes were adjusted accordingly in some instances where the reaction was carried in 20 μL. The table below summarizes the components of the RT-qPCR reactions:
(§7) The RT-qPCR reaction was performed using a QuantStudio (ThermoFisher) under the following fast cycling conditions. […]

[2] = tested on: MYB; experiment: Splicing RT-qPCR assay, MYB mRNA canonical junction (CJ) and alternative junction (AJ); settings: Homo sapiens; for AC50: increase in AJ mRNA
Protocol: as §1, §2, §3, §4, §5, §6, §7

[3] = tested on: Target C; experiment: Splicing RT-qPCR panel, Target C canonical junction (CJ) mRNA; settings: Homo sapiens, RT-qPCR panel, canonical junction mRNA; compound concentration having 50% response in CJ decrease; read-out: Target C IC50 (decrease in CJ mRNA levels)
Protocol: as §1, §2, §3, §4, §5, §6, §7

[4] = tested on: MYB; experiment: HiBiT protein abundance assay, MYB; settings: Homo sapiens, K562, 24 h, Table 13A, modified K562 cells
Protocol: (§8) Compounds described herein were used to screen for effects on quantitative protein abundance using a HiBit assay system (Promega). Quantitative protein abundance was determined by measuring the protein levels of HiBit-tagged protein targets expressed in cell culture via luminescence using the Nano-Glo HiBiT Lytic Detection System, which uses a split complementation assay format to reconstitute NanoBiT enzyme to generate a luminescent signal. A protein abundance assay was developed such that endogenous protein targets could be modified with the HiBiT peptide tag and their abundance could be assessed after compound treatment. Briefly, K562 cell lines containing a HiBiT-modification were treated with various compounds described herein (e.g., compounds of Formulas (I), (II), or (III)). After treatment for 24 hours, the protein abundance of a specific target was determined by measuring luminescence.
(§9) Cells were maintained in IMIDM with 10% FBS. Before the assay, cells were diluted with […] growth media (IMIDM+[…] media) and were seeded in a 384-well plate at a density of 10000 cells/well (for each cell line listed in Table 12). Each compound was prepared as a 10-point 3-fold serial dilution in DMSO with the top dose at a final concentration of 10 μM in the well. Unmodified K562 cells were added at the previously specified density with DMSO to serve as an assay baseline and positive control (PC) and DMSO only with the respective modified cell lines was added to the negative control (NC) columns. Final DMSO concentration was kept at or below 0.25%. Treated cell plates were placed in an incubator at 37° C. with 5% CO2 for 24 hours. After 24 hours, 25 μL of Complete HiBit Lytic reagent was added to each well at room temperature (e.g. one plate requiring 10 mL Lytic Buffer, 100 μL LgBiT Protein, 200 μL Lytic Substrate), shaken for 5 minutes at 600 RPM, then left to sit for 10 minutes for signal to stabilize before reading on a Spark Cyto plate reader (Tecan) with a 500 ms measurement time.
(§10) To determine compound effects on protein abundance of each target in Table 12, the percent response for each respective cell line was calculated at each compound concentration as follows:
(§11) For the normalized response at each concentration, a four-parameter logistical regression was fit to the data and the response was interpolated at the 50% value to determine a concentration for protein abundance at 50% (IC50) the untreated control.

[5] = tested on: HTT; experiment: HiBiT protein abundance assay, HTT; settings: Homo sapiens, K562, 24 h, Table 13A, modified K562 cells
Protocol: as §8, §9, §10, §11

[6] = tested on: Target C; experiment: HiBiT protein abundance assay, Target C; settings: Homo sapiens, K562, 24 h, Table 13A, modified K562 cells
Protocol: • Promega Nano-Glo HiBiT Lytic Detection System (cat #N3030) • Coming 384-well TC-treated microplates (cat #3570) • Synthego Engineered Cells Knock-In Clones
as §9, §10, §11

[7] = tested on: SMN2; experiment: Splicing RT-qPCR panel, SMN2 canonical junction (CJ) mRNA; settings: Homo sapiens, RT-qPCR panel, canonical junction mRNA; compound concentration having 50% response in CJ decrease; read-out: SMN2 IC50 (decrease in CJ mRNA levels)
Protocol: as §1, §2, §3, §4, §5, §6, §7

[8] = 24 h, A673 or K562 cells, 24 hours treatment, RT-qPCR
[9] = 24 h, decrease in CJ mRNA, A673 or K562 cells, 24 hours treatment, RT-qPCR, read-out: MYB CJ IC50
[10] = RT-qPCR panel, canonical junction mRNA, compound concentration having 50% response in CJ decrease, read-out: MYB IC50 (decrease in CJ mRNA levels)
[11] = 24 h, decrease in CJ mRNA, A673 or K562 cells, 24 hours treatment, RT-qPCR, read-out: HTT CJ IC50
[12] = RT-qPCR panel, canonical junction mRNA, compound concentration having 50% response in CJ decrease, read-out: HTT IC50 (decrease in CJ mRNA levels)
[13] = A673 or K562 cells, 24 hours treatment, RT-qPCR

Row | Structure (SMILES) | AC50 [1, 8] | IC50 [2, 9] | AC50 [2, 8] | IC50 [2, 10] | IC50 [3] | IC50 [4] | IC50 [5] | IC50 [6] | IC50 [1, 11] | IC50 [1, 12] | IC50 [7] | AC50 [1, 13] | IC50 ([2]; decrease in CJ mRNA, A673 or K562 cells, 24 hours treatment, RT-qPCR, read-out: MYB CJ IC50) | AC50 [2, 13]
1 | C[C@H]1C[C@@H](N(C)c2ccc(-c3ccc(-n4cccn4)c4cc[nH]c34)nn2)CCN1 [Compound 111] | > 10000 nM | 1000 to 10000 nM | > 10000 nM | 1000 to 10000 nM | > 10000 nM | 1000 to 10000 nM | 1000 to 10000 nM | 1000 to 10000 nM | – | – | – | – | – | –
2 | C[C@@H]1C[C@H](N(C)c2ccc(-c3ccc(-n4cccn4)c4nn[nH]c34)nn2)CCN1 [Compound 117] | 1000 to 10000 nM | 1000 to 10000 nM | 1000 to 10000 nM | 1000 to 10000 nM | 1000 to 10000 nM | 1000 to 10000 nM | 1000 to 10000 nM | 1000 to 10000 nM | – | – | – | – | – | –
3 | CN(c1ccc(-c2ccc(-c3cn[nH]c3)c3nn[nH]c23)nn1)[C@@H]1C[C@H]2CC[C@@H](C1)N2 [Compound 118] | > 10000 nM | > 10000 nM | 1000 to 10000 nM | > 10000 nM | 1000 to 10000 nM | 1000 to 10000 nM | 1000 to 10000 nM | 1000 to 10000 nM | – | – | – | – | – | –
4 | CN(c1ccc(-c2ccc(-n3cccn3)c3nn[nH]c23)nn1)[C@@H]1C[C@H]2CC[C@@H](C1)N2 [Compound 119] | 1000 to 10000 nM | 100 to 1000 nM | 100 to 1000 nM | 100 to 1000 nM | 100 to 1000 nM | – | – | – | 100 to 1000 nM | 100 to 1000 nM | 100 to 1000 nM | – | – | –
5 | CN(c1ccc(-c2ccc(-c3cn[nH]c3)c3ccsc23)nn1)C1CC(C)(C)NC(C)(C)C1 [Compound 131] | > 10000 nM | > 10000 nM | > 10000 nM | > 10000 nM | – | – | – | – | 1000 to 10000 nM | 1000 to 10000 nM | 100 to 1000 nM | – | – | –
6 | CC1(C)CC(Oc2ccc(-c3ccc(-c4cn[nH]c4)c4cn[nH]c34)nn2)CC(C)(C)N1 [Compound 138] | 100 to 1000 nM | 100 to 1000 nM | 100 to 1000 nM | 100 to 1000 nM | 100 to 1000 nM | – | – | – | 100 to 1000 nM | 100 to 1000 nM | 100 to 1000 nM | – | – | –
7 | CN(c1cnc(-c2cc(F)c(-c3cn[nH]c3)c3cn[nH]c23)nn1)[C@@H]1C[C@H]2CC[C@@H](C1)N2 [Compound 149] | – | – | – | 1000 to 10000 nM | 100 to 1000 nM | – | – | – | – | < 100 nM | 100 to 1000 nM | < 100 nM | 1000 to 10000 nM | 1000 to 10000 nM
